This experiment addresses T1, GMDS (GDP-mannose 4,6-dehydratase) (Homo sapiens, UniProt O60547).
T1 construct: recombinant human GMDS with a His-tag (Addgene plasmid # 39152)
T1 sequence (O60547 2-372): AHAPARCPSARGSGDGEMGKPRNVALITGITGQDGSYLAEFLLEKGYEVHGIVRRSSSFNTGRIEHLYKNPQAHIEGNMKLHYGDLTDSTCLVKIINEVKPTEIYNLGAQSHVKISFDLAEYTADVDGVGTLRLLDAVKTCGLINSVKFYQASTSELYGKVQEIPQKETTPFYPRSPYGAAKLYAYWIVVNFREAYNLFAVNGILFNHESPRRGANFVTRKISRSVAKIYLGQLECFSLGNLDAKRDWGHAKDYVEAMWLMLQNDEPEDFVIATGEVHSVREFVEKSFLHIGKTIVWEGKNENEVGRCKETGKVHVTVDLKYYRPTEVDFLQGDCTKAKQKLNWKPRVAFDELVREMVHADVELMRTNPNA
Briefly: LC-MS and 1H NMR assay of GDP-mannose conversion by recombinant GMDS ([…] enzyme, […] GDP-mannose). The class given is biochemical.

For `Nc1nc2c(ncn2[C@@H]2O[C@H](COP(=O)(O)OP(=O)(O)O[C@H]3O[C@H](C(F)F)[C@@H](O)[C@H](O)[C@@H]3O)[C@@H](O)[C@H]2O)c(=O)[nH]1` [compound 25, GDP-D-Rha6F2], the IC50 amounted to 231 µM.

As a reminder, the IC50 is the midpoint of a concentration-inhibition curve.

The values are drawn from PMC8640046, “Fluorinated rhamnosides inhibit cellular fucosylation” (Nature Communications, 2021).
